Data: PubChem BioAssay (NCI)
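Cells were grown in 96-well plates and exposed to each compound for 48 hours at five concentrations; endpoints were interpolated linearly between bracketing concentrations, or set to the highest concentration if not reached. TGI: total growth inhibition.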

What was measured:
Test in all cases: NCI-60 cell line screen, 48 h
786-0 renal = tested on: 786-0 renal
A498 renal = tested on: A498 renal
A549 NSCLC = tested on: A549 NSCLC
ACHN renal = tested on: ACHN renal
CAKI-1 renal = tested on: CAKI-1 renal
CCRF-CEM leukemia = tested on: CCRF-CEM leukemia
DLD-1 colon = tested on: DLD-1 colon
DMS 114 small cell lung = tested on: DMS 114 small cell lung
DMS 273 small cell lung = tested on: DMS 273 small cell lung
EKVX NSCLC = tested on: EKVX NSCLC
HCC-2998 colon = tested on: HCC-2998 colon
HCT-116 colon = tested on: HCT-116 colon
HCT-15 colon = tested on: HCT-15 colon
HL-60(TB) leukemia = tested on: HL-60(TB) leukemia
HOP-18 NSCLC = tested on: HOP-18 NSCLC
HOP-92 NSCLC = tested on: HOP-92 NSCLC
HT29 colon = tested on: HT29 colon
K-562 leukemia = tested on: K-562 leukemia
KM12 colon = tested on: KM12 colon
KM20L2 colon = tested on: KM20L2 colon
LOX IMVI melanoma = tested on: LOX IMVI melanoma
LXFL 529 NSCLC = tested on: LXFL 529 NSCLC
M14 melanoma = tested on: M14 melanoma
M19-MEL melanoma = tested on: M19-MEL melanoma
MALME-3M melanoma = tested on: MALME-3M melanoma
MOLT-4 leukemia = tested on: MOLT-4 leukemia
NCI-H226 lung = tested on: NCI-H226 lung
NCI-H23 lung = tested on: NCI-H23 lung
NCI-H460 lung = tested on: NCI-H460 lung
OVCAR-3 ovarian = tested on: OVCAR-3 ovarian
OVCAR-4 ovarian = tested on: OVCAR-4 ovarian
OVCAR-5 ovarian = tested on: OVCAR-5 ovarian
OVCAR-8 ovarian = tested on: OVCAR-8 ovarian
RPMI-8226 leukemia = tested on: RPMI-8226 leukemia
RXF 393 renal = tested on: RXF 393 renal
RXF-631 renal = tested on: RXF-631 renal
SF-295 CNS = tested on: SF-295 CNS
SF-539 CNS = tested on: SF-539 CNS
SK-MEL-2 melanoma = tested on: SK-MEL-2 melanoma
SK-MEL-28 melanoma = tested on: SK-MEL-28 melanoma
SK-MEL-5 melanoma = tested on: SK-MEL-5 melanoma
SN12C renal = tested on: SN12C renal
SNB-19 CNS = tested on: SNB-19 CNS
SNB-75 CNS = tested on: SNB-75 CNS
SNB-78 CNS = tested on: SNB-78 CNS
SR leukemia = tested on: SR leukemia
SW-620 colon = tested on: SW-620 colon
TK-10 renal = tested on: TK-10 renal
U251 CNS = tested on: U251 CNS
UACC-257 melanoma = tested on: UACC-257 melanoma
UACC-62 melanoma = tested on: UACC-62 melanoma
UO-31 renal = tested on: UO-31 renal
XF 498 CNS = tested on: XF 498 CNS
COLO 205 colon = tested on: COLO 205 colon
IGROV1 ovarian = tested on: IGROV1 ovarian
NCI-H522 lung = tested on: NCI-H522 lung
SF-268 CNS = tested on: SF-268 CNS
SK-OV-3 ovarian = tested on: SK-OV-3 ovarian

## c1ccc(-c2nnc3nn4c(-c5ccccc5)cnnc4c3c2-c2ccccc2)cc1
786-0 renal
  TGI: 25.8 µM
A498 renal
  TGI: > 100 µM
A549 NSCLC
  TGI: > 100 µM
ACHN renal
  TGI: > 100 µM
CAKI-1 renal
  TGI: 45.6 µM
CCRF-CEM leukemia
  TGI: > 100 µM
DLD-1 colon
  TGI: > 100 µM
DMS 114 small cell lung
  TGI: > 100 µM
DMS 273 small cell lung
  TGI: > 100 µM
EKVX NSCLC
  TGI: 70.9 µM
HCC-2998 colon
  TGI: > 100 µM
HCT-116 colon
  TGI: > 100 µM
HCT-15 colon
  TGI: > 100 µM
HL-60(TB) leukemia
  TGI: > 100 µM
HOP-18 NSCLC
  TGI: > 100 µM
HOP-92 NSCLC
  TGI: > 100 µM
HT29 colon
  TGI: > 100 µM
K-562 leukemia
  TGI: > 100 µM
KM12 colon
  TGI: > 100 µM
KM20L2 colon
  TGI: > 100 µM
LOX IMVI melanoma
  TGI: > 100 µM
LXFL 529 NSCLC
  TGI: > 100 µM
M14 melanoma
  TGI: > 100 µM
M19-MEL melanoma
  TGI: > 100 µM
MALME-3M melanoma
  TGI: > 100 µM
MOLT-4 leukemia
  TGI: > 100 µM
NCI-H226 lung
  TGI: > 100 µM
NCI-H23 lung
  TGI: > 100 µM
NCI-H460 lung
  TGI: > 100 µM
OVCAR-3 ovarian
  TGI: > 100 µM
OVCAR-4 ovarian
  TGI: 42.5 µM
OVCAR-5 ovarian
  TGI: > 100 µM
OVCAR-8 ovarian
  TGI: > 100 µM
RPMI-8226 leukemia
  TGI: > 100 µM
RXF 393 renal
  TGI: 46.3 µM
RXF-631 renal
  TGI: 66.7 µM
SF-295 CNS
  TGI: > 100 µM
SF-539 CNS
  TGI: 99.5 µM
SK-MEL-2 melanoma
  TGI: > 100 µM
SK-MEL-28 melanoma
  TGI: > 100 µM
SK-MEL-5 melanoma
  TGI: > 100 µM
SN12C renal
  TGI: > 100 µM
SNB-19 CNS
  TGI: 61.2 µM
SNB-75 CNS
  TGI: 83.9 µM
SNB-78 CNS
  TGI: > 100 µM
SR leukemia
  TGI: > 100 µM
SW-620 colon
  TGI: > 100 µM
TK-10 renal
  TGI: 83.1 µM
U251 CNS
  TGI: > 100 µM
UACC-257 melanoma
  TGI: > 100 µM
UACC-62 melanoma
  TGI: > 100 µM
UO-31 renal
  TGI: 75.1 µM
XF 498 CNS
  TGI: 57.1 µM

## O=S1(=O)c2ccccc2N=C(c2ccccc2Cl)CC1c1ccc(F)cc1 (configuration not stated)
786-0 renal
  TGI: 30.5 µM
A498 renal
  TGI: 35.7 µM
A549 NSCLC
  TGI: 47.4 µM
ACHN renal
  TGI: 32.6 µM
CAKI-1 renal
  TGI: 34.3 µM
CCRF-CEM leukemia
  TGI: 50.5 µM
COLO 205 colon
  TGI: 40.3 µM
DLD-1 colon
  TGI: 28.6 µM
DMS 114 small cell lung
  TGI: 41.1 µM
DMS 273 small cell lung
  TGI: 45.3 µM
EKVX NSCLC
  TGI: 36.2 µM
HCC-2998 colon
  TGI: 28.4 µM
HCT-116 colon
  TGI: 22.9 µM
HCT-15 colon
  TGI: 35.6 µM
HL-60(TB) leukemia
  TGI: 45.4 µM
HOP-18 NSCLC
  TGI: 29.3 µM
HOP-92 NSCLC
  TGI: 34.6 µM
IGROV1 ovarian
  TGI: 37.4 µM
K-562 leukemia
  TGI: 34.6 µM
KM12 colon
  TGI: 31.8 µM
KM20L2 colon
  TGI: 37.4 µM
LOX IMVI melanoma
  TGI: 34.2 µM
LXFL 529 NSCLC
  TGI: 31.6 µM
M14 melanoma
  TGI: 35.3 µM
M19-MEL melanoma
  TGI: 31.5 µM
MALME-3M melanoma
  TGI: 36.8 µM
MOLT-4 leukemia
  TGI: 51.7 µM
NCI-H23 lung
  TGI: 32.2 µM
NCI-H460 lung
  TGI: 34.6 µM
NCI-H522 lung
  TGI: 26.9 µM
OVCAR-3 ovarian
  TGI: 27.4 µM
OVCAR-4 ovarian
  TGI: 32.8 µM
OVCAR-5 ovarian
  TGI: 30.7 µM
OVCAR-8 ovarian
  TGI: 48.3 µM
RPMI-8226 leukemia
  TGI: 14.4 µM
RXF 393 renal
  TGI: 20.1 µM
SF-268 CNS
  TGI: 47.4 µM
SF-295 CNS
  TGI: 34.4 µM
SF-539 CNS
  TGI: 35.7 µM
SK-MEL-2 melanoma
  TGI: 35.9 µM
SK-MEL-28 melanoma
  TGI: 32.7 µM
SK-MEL-5 melanoma
  TGI: 31.4 µM
SK-OV-3 ovarian
  TGI: 89 µM
SN12C renal
  TGI: 29.1 µM
SNB-19 CNS
  TGI: 31.4 µM
SNB-75 CNS
  TGI: 47.8 µM
SNB-78 CNS
  TGI: 40.3 µM
SW-620 colon
  TGI: 31.5 µM
TK-10 renal
  TGI: 50.4 µM
U251 CNS
  TGI: 28.4 µM
UACC-257 melanoma
  TGI: 24.7 µM
UACC-62 melanoma
  TGI: 32 µM
UO-31 renal
  TGI: 28.6 µM
XF 498 CNS
  TGI: 29 µM
